Measurements taken from US5068247A, “2-aminopentanoic acid compounds and their use as immunosuppressants” (priority 1989, dated 1991).
Where two headings read alike, the source gives them in different places.

Key:
Assay type in all cases: cell-based
[1] = tested on: human allogenic MLR (human peripheral blood lymphocytes); test: human allogenic MLR-suppressive activity, 3H-thymidine uptake; details: for suppressive activity in human allogenic MLR (in words): 1 to 0.0001 μg/ml
Procedure: The human allogenic MLR-suppressive activity was assayed as follows:
Human peripheral blood lymphocytes obtained by Ficoll-Paque density gradient centrifugation of normal human peripheral blood were suspended in the RPMI1640 culture medium supplemented with 10% FCS, placed in a plastic dish, and cultured in an atmosphere of 5% carbon dioxide and 95% air at 37° C. for 2 hours. After termination of culture, the supernatant after gentle pipetting was collected and centrifuged (1000 rpm, for 5 minutes) to obtain plastic-nonadherent cells. The plastic-nonadherent cells were allowed to pass through a nylon-wool column to give nylon-nonadherent cells, and the concentration of the cell suspension was adjusted to 4×10^6 cells/ml by using the RPMI1640 culture medium supplemented with 10% FCS, and used as the responder cell suspension.
The plastic-adherent cells were removed from the plastic dish by vigorous pipetting after addition of phosphate buffered saline (PBS) supplemented with 5% FCS and 0.02% disodium ethylenediaminetetraacetic acid (EDTA). The plastic-adherent cells were treated with 40 μg/ml of mitomycin C at 37° C. for 60 minutes, washed three times, and suspended to the concentration of 4×10^6 cells/ml in the RPMI1640 culture medium supplemented with 10% FCS. The resultant suspension was used as the stimulator cell suspension.
After termination of culture, 37 KBq/well of ^3 H-thymidine was added, and after 18 hours of culture, the cells were harvested by a cell-harvester. The radioactivity incorporated into the cells was measured by a liquid scintillation counter, which was used as an index of blastogenic response of lymphocytes in human allogenic MLR. The suppression of human allogenic MLR was evaluated by calculating the percent suppression by the following formula. [formula]

CTLL-2 cells = test: suppression of proliferation of IL-2-dependent mouse cell line CTLL-2 induced by IL-2; details: IL-2 50 U/ml
Procedure: IL-2-dependent mouse cell line CTLL-2 cells were suspended in the RPMI1640 culture medium supplemented with 30% FCS to the concentration of 4×10^5 cells/ml. Fifty μl of the cell suspension, 50 μl of 200 U/ml recombinant human IL-2 (rhIL-2) and 100 μl of the test substance were added to a 96-well flat-bottomed microtest plate. […] The percent suppression (%) was calculated by the following formula. [formula]

[2] = tested on: IL-3 production in PHA-stimulated mouse spleen cells; test: suppression of IL-3 production in PHA-stimulated mouse spleen cells; details: for inhibition at 0.001 µg/mL / inhibition at 0.01 µg/mL / inhibition at 0.1 µg/mL / inhibition at 1 µg/mL: Mus musculus, 24 h, read-out: Suppression
[3] = tested on: IL-2 production in PHA-stimulated mouse spleen cells; test: suppression of IL-2 production in PHA-stimulated mouse spleen cells; details: for inhibition at 0.001 µg/mL / inhibition at 0.01 µg/mL / inhibition at 0.1 µg/mL / inhibition at 1 µg/mL: Mus musculus, 24 h, read-out: Suppression
How it was run: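 C3H/HeN male spleen cells (10^7 cells/ml, RPMI1640 + 20% FCS) stimulated with 10 μg/ml PHA; supernatants collected after culture. IL-2 activity titrated by two-fold serial dilution on IL-2-dependent CTLL-2 cells (2×10^5 cells/ml, 30% FCS), MTT read-out. Expressed as U/ml, the dilution giving 50% of maximal absorbance.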

[4] = Homo sapiens, Lymphocyte, 0.0001 μg/ml, Donor A/Donor B, read-out: Suppression
[5] = Homo sapiens, Lymphocyte, 0.0001 μg/ml, Donor C/Donor D, read-out: Suppression
[6] = Homo sapiens, Lymphocyte, 0.001 μg/ml, Donor A/Donor B, read-out: Suppression
[7] = Homo sapiens, Lymphocyte, 0.001 μg/ml, Donor C/Donor D, read-out: Suppression
[8] = Homo sapiens, Lymphocyte, 0.01 μg/ml, Donor A/Donor B, read-out: Suppression
[9] = Homo sapiens, Lymphocyte, 0.01 μg/ml, Donor C/Donor D, read-out: Suppression
[10] = Homo sapiens, Lymphocyte, 0.1 μg/ml, Donor A/Donor B, read-out: Suppression
[11] = Homo sapiens, Lymphocyte, 0.1 μg/ml, Donor C/Donor D, read-out: Suppression
[12] = Homo sapiens, Lymphocyte, 1 μg/ml, Donor A/Donor B, read-out: Suppression
[13] = Homo sapiens, Lymphocyte, 1 μg/ml, Donor C/Donor D, read-out: Suppression

## CCCCCCC1(CCCCCC/C=C/C[C@@H](O)[C@H](O)[C@@](N)(CO)C(=O)O)SCCS1 [Example 3]
[1]; 0.0001 μg/ml, Donor A/Donor B
  3H-thymidine uptake: 10700 cpm
[1]; 0.0001 μg/ml, Donor C/Donor D
  3H-thymidine uptake: 18512 cpm
[1]; 0.001 μg/ml, Donor A/Donor B
  3H-thymidine uptake: 7285 cpm
[1]; 0.001 μg/ml, Donor C/Donor D
  3H-thymidine uptake: 17138 cpm
[1]; 0.01 μg/ml, Donor A/Donor B
  3H-thymidine uptake: 7790 cpm
[1]; 0.01 μg/ml, Donor C/Donor D
  3H-thymidine uptake: 15337 cpm
[1]; 0.1 μg/ml, Donor A/Donor B
  3H-thymidine uptake: 6582 cpm
[1]; 0.1 μg/ml, Donor C/Donor D
  3H-thymidine uptake: 8187 cpm
[1]; 1 μg/ml, Donor A/Donor B
  3H-thymidine uptake: 5909 cpm
[1]; 1 μg/ml, Donor C/Donor D
  3H-thymidine uptake: 5143 cpm
[1]
  suppressive activity in human allogenic MLR (in words): exhibited suppressive activity in human allogenic MLR in a concentration-dependent manner
[1]; [4]
  inhibition at 0.0001 µg/mL: 10.7%
[1]; [5]
  inhibition at 0.0001 µg/mL: 7.9%
[1]; [6]
  inhibition at 0.001 µg/mL: 41.3%
[1]; [7]
  inhibition at 0.001 µg/mL: 14.9%
[1]; [8]
  inhibition at 0.01 µg/mL: 36.8%
[1]; [9]
  inhibition at 0.01 µg/mL: 24.1%
[1]; [10]
  inhibition at 0.1 µg/mL: 47.6%
[1]; [11]
  inhibition at 0.1 µg/mL: 60.5%
[1]; [12]
  inhibition at 1 µg/mL: 53.7%
[1]; [13]
  inhibition at 1 µg/mL: 76%
CTLL-2 cells; 0.001 μg/ml, Table 6A
  optical density (OD570): 0.551
CTLL-2 cells; 0.01 μg/ml, Table 6A
  optical density (OD570): 0.449
CTLL-2 cells; 0.1 μg/ml, Table 6A
  optical density (OD570): 0.471
CTLL-2 cells; 1 μg/ml, Table 6A
  optical density (OD570): 0.152
CTLL-2 cells; Mus musculus, CTLL-2, 68 h, 0.001 μg/ml, Table 6A, read-out: Suppression
  inhibition at 0.001 µg/mL: 6%
CTLL-2 cells; Mus musculus, CTLL-2, 68 h, 0.01 μg/ml, Table 6A, read-out: Suppression
  inhibition at 0.01 µg/mL: 23.4%
CTLL-2 cells; Mus musculus, CTLL-2, 68 h, 0.1 μg/ml, Table 6A, read-out: Suppression
  inhibition at 0.1 µg/mL: 19.7%
CTLL-2 cells; Mus musculus, CTLL-2, 68 h, 1 μg/ml, Table 6A, read-out: Suppression
  inhibition at 1 µg/mL: 74.2%
[2]; 0.001 μg/ml
  IL-3 activity: 42.2 U/ml
  inhibition at 0.001 µg/mL: 0%
[2]; 0.01 μg/ml
  IL-3 activity: 45.3 U/ml
  inhibition at 0.01 µg/mL: 0%
[2]; 0.1 μg/ml
  IL-3 activity: 42.2 U/ml
  inhibition at 0.1 µg/mL: 0%
[2]; 1 μg/ml
  IL-3 activity: 27.9 U/ml
  inhibition at 1 µg/mL: 24.2%
[3]; 0.001 μg/ml
  IL-2 activity: 14.9 U/ml
  inhibition at 0.001 µg/mL: 0%
[3]; 0.01 μg/ml
  IL-2 activity: 13.9 U/ml
  inhibition at 0.01 µg/mL: 0%
[3]; 0.1 μg/ml
  IL-2 activity: 12.6 U/ml
  inhibition at 0.1 µg/mL: 0%
[3]; 1 μg/ml
  IL-2 activity: 8.6 U/ml
  inhibition at 1 µg/mL: 28.9%

## CCCCCCCCCCCCC/C=C/C[C@@H](O)[C@H](O)[C@@](N)(CO)C(=O)O [Example 5]
[1]; 0.00001 μg/ml, Donor A/Donor B
  3H-thymidine uptake: 14723 cpm
[1]; 0.0001 μg/ml, Donor A/Donor B
  3H-thymidine uptake: 8052 cpm
[1]; 0.0001 μg/ml, Donor C/Donor D
  3H-thymidine uptake: 15723 cpm
[1]; 0.001 μg/ml, Donor A/Donor B
  3H-thymidine uptake: 5363 cpm
[1]; 0.001 μg/ml, Donor C/Donor D
  3H-thymidine uptake: 7145 cpm
[1]; 0.01 μg/ml, Donor A/Donor B
  3H-thymidine uptake: 5042 cpm
[1]; 0.01 μg/ml, Donor C/Donor D
  3H-thymidine uptake: 5878 cpm
[1]; 0.1 μg/ml, Donor A/Donor B
  3H-thymidine uptake: 4660 cpm
[1]; 0.1 μg/ml, Donor C/Donor D
  3H-thymidine uptake: 4703 cpm
[1]; 1 μg/ml, Donor A/Donor B
  3H-thymidine uptake: 5545 cpm
[1]; 1 μg/ml, Donor C/Donor D
  3H-thymidine uptake: 5601 cpm
[1]
  suppressive activity in human allogenic MLR (in words): exhibited suppressive activity in human allogenic MLR in a concentration-dependent manner
[1]; Homo sapiens, Lymphocyte, 0.00001 μg/ml, Donor A/Donor B, read-out: Suppression
  inhibition at 10 pg/mL: 0%
[1]; [4]
  inhibition at 0.0001 µg/mL: 34.4%
[1]; [5]
  inhibition at 0.0001 µg/mL: 22.1%
[1]; [6]
  inhibition at 0.001 µg/mL: 58.5%
[1]; [7]
  inhibition at 0.001 µg/mL: 65.8%
[1]; [8]
  inhibition at 0.01 µg/mL: 61.4%
[1]; [9]
  inhibition at 0.01 µg/mL: 72.3%
[1]; [10]
  inhibition at 0.1 µg/mL: 64.8%
[1]; [11]
  inhibition at 0.1 µg/mL: 78.3%
[1]; [12]
  inhibition at 1 µg/mL: 56.9%
[1]; [13]
  inhibition at 1 µg/mL: 73.7%
CTLL-2 cells; 0.01 μg/ml, Table 6B
  optical density (OD570): 0.915
CTLL-2 cells; 0.1 μg/ml, Table 6B
  optical density (OD570): 0.322
CTLL-2 cells; 1 μg/ml, Table 6B
  optical density (OD570): 0.239
CTLL-2 cells; Mus musculus, CTLL-2, 68 h, 0.01 μg/ml, Table 6B, read-out: Suppression
  inhibition at 0.01 µg/mL: 4.9%
CTLL-2 cells; Mus musculus, CTLL-2, 68 h, 0.1 μg/ml, Table 6B, read-out: Suppression
  inhibition at 0.1 µg/mL: 68.3%
CTLL-2 cells; Mus musculus, CTLL-2, 68 h, 1 μg/ml, Table 6B, read-out: Suppression
  inhibition at 1 µg/mL: 77.2%
[2]; 0.001 μg/ml
  IL-3 activity: 22.0 U/ml
  inhibition at 0.001 µg/mL: 10.2%
[2]; 0.01 μg/ml
  IL-3 activity: 13.2 U/ml
  inhibition at 0.01 µg/mL: 10.2%
[2]; 0.1 μg/ml
  IL-3 activity: 12.0 U/ml
  inhibition at 0.1 µg/mL: 51%
[2]; 1 μg/ml
  IL-3 activity: 9.5 U/ml
  inhibition at 1 µg/mL: 62.2%
[3]; 0.001 μg/ml
  IL-2 activity: 8.6 U/ml
  inhibition at 0.001 µg/mL: 36.3%
[3]; 0.01 μg/ml
  IL-2 activity: 4.6 U/ml
  inhibition at 0.01 µg/mL: 65.9%
[3]; 0.1 μg/ml
  IL-2 activity: 4.3 U/ml
  inhibition at 0.1 µg/mL: 68.1%
[3]; 1 μg/ml
  IL-2 activity: 2.7 U/ml
  inhibition at 1 µg/mL: 80%
